Measured values: patent US20250136606A1, “MODULATORS OF TRPML, THEIR COMPOSITIONS AND METHODS OF USE” (Caraway Therapeutics, Inc., priority 2021, published 2025)

What was measured:
Assay type in all cases: cell-based
Conditions in all cases: fluorescent calcium assay
TRPML3 = biological target: T1, TRPML3 (Homo sapiens, UniProt Q8TDD5); assay: Fluorescent TRPML3 assay (performed as for TRPML1, substituting the TRPML3 subtype)
T1 construct: expressed in transfected cells
T1 sequence (Q8TDD5 1-553): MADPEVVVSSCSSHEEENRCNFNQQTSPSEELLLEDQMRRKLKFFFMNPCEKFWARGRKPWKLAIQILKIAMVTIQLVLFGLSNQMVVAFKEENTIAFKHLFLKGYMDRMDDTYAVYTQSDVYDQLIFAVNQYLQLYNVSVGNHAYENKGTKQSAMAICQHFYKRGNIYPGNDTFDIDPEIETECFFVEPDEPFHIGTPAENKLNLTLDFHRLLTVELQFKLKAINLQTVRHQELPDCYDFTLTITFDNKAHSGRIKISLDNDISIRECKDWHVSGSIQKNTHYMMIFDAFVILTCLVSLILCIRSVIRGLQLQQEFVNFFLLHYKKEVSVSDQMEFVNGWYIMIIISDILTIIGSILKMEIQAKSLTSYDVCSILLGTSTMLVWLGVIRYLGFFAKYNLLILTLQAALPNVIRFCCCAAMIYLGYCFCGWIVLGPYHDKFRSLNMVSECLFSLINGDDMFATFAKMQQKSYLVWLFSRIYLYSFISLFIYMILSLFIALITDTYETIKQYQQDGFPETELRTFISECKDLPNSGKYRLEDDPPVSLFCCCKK
Summary of the method: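 Compound series (final 6 nM-20 μM, half-log, triplicate) were added to Fluo4-AM-loaded HEK-293 Trex cells in 10 mM calcium Ringer's, expressing the human TRPML subtype after doxycycline 0.5 ug/mL induction. Percent activity versus positive/negative controls from 480/540 nm fluorescence; EC50 by non-linear regression.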

TRPML2 = biological target: T2, TRPML2 (Homo sapiens, UniProt Q8IZK6); assay: Fluorescent TRPML2 assay (performed as for TRPML1, substituting the TRPML2 subtype)
T2 construct: expressed in transfected cells
T2 sequence (Q8IZK6 1-566): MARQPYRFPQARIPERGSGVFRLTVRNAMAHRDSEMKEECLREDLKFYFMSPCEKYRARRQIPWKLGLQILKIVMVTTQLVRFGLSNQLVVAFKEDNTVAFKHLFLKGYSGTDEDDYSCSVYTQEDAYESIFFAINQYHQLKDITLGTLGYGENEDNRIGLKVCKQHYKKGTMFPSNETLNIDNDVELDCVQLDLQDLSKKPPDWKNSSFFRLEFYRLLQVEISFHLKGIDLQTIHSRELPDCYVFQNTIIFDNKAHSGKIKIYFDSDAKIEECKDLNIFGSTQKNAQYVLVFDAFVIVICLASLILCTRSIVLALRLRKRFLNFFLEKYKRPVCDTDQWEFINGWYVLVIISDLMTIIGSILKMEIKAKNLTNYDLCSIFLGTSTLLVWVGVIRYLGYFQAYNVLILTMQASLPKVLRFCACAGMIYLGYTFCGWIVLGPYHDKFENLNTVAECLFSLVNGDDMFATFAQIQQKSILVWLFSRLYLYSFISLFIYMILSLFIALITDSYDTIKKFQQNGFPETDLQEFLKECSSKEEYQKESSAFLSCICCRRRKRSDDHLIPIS
Description: HEK-293 Trex cells were stably transfected with a construct consisting of the human coding sequence for TRPML1 cloned into the […] plasmid pCDNA5 T/O. Mutations were introduced into the TRPML1 sequence to facilitate expression on the cell surface (Silvia Vergarajauregui, Rosa Puertollano, Traffic. 2006 March; 7(3): 337-353). Briefly, the cells are cultured in 150 mm round tissue culture dishes containing 20 mL of media. The day before the assay the cells are rinsed with DPBS-Ca—Mg and then treated briefly with Trypsin-EDTA. The Trypsin-EDTA is diluted with growth media, and cells are counted. 38×10^6 cells are re-plated into 150 mm round tissue culture dishes in media containing 0.5 ug/mL doxycycline to induce expression of hTRPML1.
The day of the experiment cells are lifted from the plates as above and collected by centrifugation. The cells are then suspended in dye loading buffer consisting of Ringer's solution supplemented with 0.1% Pluronic Acid and 1 micromolar Fluo4-AM dye. Cells are loaded for ˜60 minutes in the dark with occasional mixing. The cells are collected by centrifugation, the loading media aspirated, and the cells resuspended in 25 mL Ringer's solution and incubated ˜60 minutes in the dark. The cells are again collected by centrifugation, rinsed in Ringer's Solution and resuspended to […] in modified Ringer's solution containing 10 mM calcium.
Compounds are dissolved to a concentration of 10 millimolar with DMSO. Compound plates are created by dispensing compounds into 384 well black wall clear bottom plates (Greiner 781091). Positive and negative controls are included on each plate. Typically, different amounts of each compound are tested ranging from 100 nanoMoles (20 micromolar final concentration) decreasing in half-log steps to 31 picoMoles (6 nanomolar final concentration). Each concentration is typically tested in triplicate.
50 microliters of dye-loaded cells are dispensed into each well of the compound assay plate created above. The fluorescence in each well is then determined with an excitation wavelength of 480 nm and an emission wavelength of 540 nm using either a Molecular Devices SpectraMax multimode plate reader or a Hamamatsu FDSS/uCell plate imager.
The resulting fluorescence for each well is exported as an ascii file and loaded into our LIMS for analysis. The percent activity of each compound at each concentration is determined by comparison to the positive and negative control wells included in each plate.
TRPML2 and TRPML3 Assays Assays for TRPML2 and TRPML3 were performed as above for TRPML1, by substituting the appropriate TRPML2 or TRPML3 subtype for the TRPML1.
EC50 values were calculated using a non-linear regression of Prism. In the table, “A” indicates an EC50 of less than 100 nM, “B” indicates an EC50 range from 100 nM to 500 nM; “C” indicates an EC50 range from 500 nM to 2 μM; and “D” indicates an EC50 greater than 2 μM.

TRPML1 = TRPML1 (Homo sapiens, UniProt Q9GZU1); assay: Fluorescent TRPML1 assay (Fluo4-AM calcium fluorescence in doxycycline-induced HEK-293 Trex cells)
Sequence of TRPML1 (Q9GZU1 whole entry L15A/L16A/L577A/L578A, form open): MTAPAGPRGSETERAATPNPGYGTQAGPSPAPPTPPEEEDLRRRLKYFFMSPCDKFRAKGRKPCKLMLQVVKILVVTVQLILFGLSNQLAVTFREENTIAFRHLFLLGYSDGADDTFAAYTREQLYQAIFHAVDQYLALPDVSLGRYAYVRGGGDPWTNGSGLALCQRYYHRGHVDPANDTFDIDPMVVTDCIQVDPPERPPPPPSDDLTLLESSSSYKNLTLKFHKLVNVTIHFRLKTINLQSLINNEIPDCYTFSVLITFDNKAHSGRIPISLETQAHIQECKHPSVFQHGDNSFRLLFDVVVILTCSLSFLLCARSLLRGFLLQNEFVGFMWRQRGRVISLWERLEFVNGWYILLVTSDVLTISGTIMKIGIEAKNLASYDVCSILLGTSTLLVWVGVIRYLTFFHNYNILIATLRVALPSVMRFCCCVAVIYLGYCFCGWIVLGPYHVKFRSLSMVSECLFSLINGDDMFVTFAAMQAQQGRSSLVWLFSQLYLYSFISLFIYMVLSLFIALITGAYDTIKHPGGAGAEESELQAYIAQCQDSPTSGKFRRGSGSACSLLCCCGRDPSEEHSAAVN
Summary of the method: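 EC50 values come from non-linear regression of percent activity, normalized to on-plate positive and negative controls, with fluorescence read at 480 nm excitation and 540 nm emission. Fluo4-AM-loaded (1 µM) doxycycline-induced HEK-293 Trex cells expressing mutated human TRPML1 were exposed in 10 mM calcium Ringer's to 6 nM–20 µM compound, in triplicate.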

SMILES	EC50 (TRPML3) [nM]	EC50 (TRPML2) [nM]	EC50 (TRPML1) [nM]
C[C@@H]1CN(c2ncnc3c2c(C2CC2)cn3-c2ccc(F)c(F)c2)CCN1C(=O)OC(C)(C)C [Compound 109, tert-butyl (R)-4-(5-cyclopropyl-7-(3,4-difluorophenyl)-7H-pyrrolo[2,3-d]pyrimidin-4-yl)-2-methylpiperazine-1-carboxylate]	< 100	< 100	< 100
C[C@@H]1CN(c2ncnc3c2c(C2CC2)cn3-c2cc(Cl)cc(Cl)c2)CCN1C(=O)OC(C)(C)C [Compound 111, tert-butyl (R)-4-(5-cyclopropyl-7-(3,5-dichlorophenyl)-7H-pyrrolo[2,3-d]pyrimidin-4-yl)-2-methylpiperazine-1-carboxylate]	< 100	100 to 500	< 100
CCOC(=O)N1CCN(c2ncnc3c2c(C2CC2)cn3-c2ccc(Cl)cc2)[C@@H](C)C1 [Compound 112, ethyl (S)-4-(7-(4-chlorophenyl)-5-cyclopropyl-7H-pyrrolo[2,3-d]pyrimidin-4-yl)-3-methylpiperazine-1-carboxylate]	500 to 2000	100 to 500	100 to 500
CC(C)(C)OC(=O)N1CCN(c2ncnc3c2c(C2CC2)cn3-c2ccc(F)c(F)c2)CC1 [Compound 113, tert-butyl 4-(5-cyclopropyl-7-(3,4-difluorophenyl)-7H-pyrrolo[2,3-d]pyrimidin-4-yl)piperazine-1-carboxylate]	100 to 500	500 to 2000	< 100
C[C@H]1CN(C(=O)OC(C)(C)C)CCN1c1ncnc2c1c(-c1ccncn1)cn2-c1cccc(Cl)c1 [Compound 115, tert-butyl (S)-4-(7-(3-chlorophenyl)-5-(pyrimidin-4-yl)-7H-pyrrolo[2,3-d]pyrimidin-4-yl)-3-methylpiperazine-1-carboxylate]	100 to 500	500 to 2000	100 to 500
C[C@@H]1CN(c2ncnc3c2c(-c2ccccn2)cn3-c2cccc(Cl)c2)[C@@H](C)CN1C(=O)OC(C)(C)C [Compound 117, tert-butyl (2R,5S)-4-(7-(3-chlorophenyl)-5-(pyridin-2-yl)-7H-pyrrolo[2,3-d]pyrimidin-4-yl)-2,5-dimethylpiperazine-1-carboxylate]	< 100	100 to 500	< 100
CCOC(=O)N1C[C@H](C)N(c2ncnc3c2c(-c2ccccn2)cn3-c2cccc(Cl)c2)C[C@H]1C [Compound 118, Ethyl (2R,5S)-4-(7-(3-chlorophenyl)-5-(pyridin-2-yl)-7H-pyrrolo[2,3-d]pyrimidin-4-yl)-2,5-dimethylpiperazine-1-carboxylate]	500 to 2000	> 2000	100 to 500
C[C@H]1CN(C(=O)OC(C)(C)C)CCN1c1ncnc2c1c(-c1cnccn1)cn2-c1cccc(Cl)c1 [Compound 120, tert-butyl (S)-4-(7-(3-chlorophenyl)-5-(pyrazin-2-yl)-7H-pyrrolo[2,3-d]pyrimidin-4-yl)-3-methylpiperazine-1-carboxylate]	< 100	100 to 500	100 to 500
C[C@H]1CN(C(=O)OC(C)(C)C(F)(F)F)CCN1c1ncnc2c1c(-c1ccccn1)cn2-c1cccc(Cl)c1 [Compound 121, 1,1,1-trifluoro-2-methylpropan-2-yl (S)-4-(7-(3-chlorophenyl)-5-(pyridin-2-yl)-7H-pyrrolo[2,3-d]pyrimidin-4-yl)-3-methylpiperazine-1-carboxylate]	< 100	100 to 500	< 100

Next, values leading:

EC50 (TRPML3) [nM]	EC50 (TRPML2) [nM]	EC50 (TRPML1) [nM]	SMILES
< 100	100 to 500	< 100	CC(C)(C)OC(=O)N1CCN(c2ncnc3c2c(C2CC2)cn3-c2ccc(Cl)cc2)CC1 [Compound 107, tert-butyl 4-(7-(4-chlorophenyl)-5-cyclopropyl-7H-pyrrolo[2,3-d]pyrimidin-4-yl) piperazine-1-carboxylate]
< 100	100 to 500	< 100	C[C@@H]1CN(c2ncnc3c2c(C2CC2)cn3-c2cc(F)cc(F)c2)CCN1C(=O)OC(C)(C)C [Compound 108, tert-butyl (R)-4-(5-cyclopropyl-7-(3,5-difluorophenyl)-7H-pyrrolo[2,3-d]pyrimidin-4-yl)-2-methylpiperazine-1-carboxylate]
< 100	< 100	< 100	C[C@@H]1CN(c2ncnc3c2c(C2CC2)cn3-c2ccc(Cl)c(F)c2)CCN1C(=O)OC(C)(C)C [Compound 110, tert-butyl (R)-4-(7-(4-chloro-3-fluorophenyl)-5-cyclopropyl-7H-pyrrolo[2,3-d]pyrimidin-4-yl)-2-methylpiperazine-1-carboxylate]
< 100	< 100	< 100	C[C@H]1CN(C(=O)OC(C)(C)C)CCN1c1ncnc2c1c(C1CC1)cn2-c1ccc(Cl)cc1 [Compound 114, tert-butyl (S)-4-(7-(4-chlorophenyl)-5-cyclopropyl-7H-pyrrolo[2,3-d]pyrimidin-4-yl)-3-methylpiperazine-1-carboxylate]
100 to 500	500 to 2000	100 to 500	C[C@H]1CN(C(=O)OC(C)(C)C)CCN1c1ncnc2c1c(-c1ncccn1)cn2-c1cccc(Cl)c1 [Compound 116, tert-butyl (S)-4-(7-(3-chlorophenyl)-5-(pyrimidin-2-yl)-7H-pyrrolo[2,3-d]pyrimidin-4-yl)-3-methylpiperazine-1-carboxylate]
< 100	100 to 500	< 100	C[C@H]1CN(C(=O)OC(C)(C)C)CCN1c1ncnc2c1c(-c1ccccn1)cn2-c1cccc(Cl)c1 [Compound 119, tert-butyl (S)-4-(7-(3-chlorophenyl)-5-(pyridin-2-yl)-7H-pyrrolo[2,3-d]pyrimidin-4-yl)-3-methylpiperazine-1-carboxylate]
< 100	> 2000	< 100	CC(C)(C)OC(=O)N1CCN(c2ncnc3c2c(C2CC2)cn3-c2cc(Cl)cc(Cl)c2)CC1 [Compound 122, tert-butyl 4-(5-cyclopropyl-7-(3,5-dichlorophenyl)-7H-pyrrolo[2,3-d]pyrimidin-4-yl)piperazine-1-carboxylate]
